Assay results: PMC6331789, “Phytochemicals from Ruta graveolens Activate TAS2R Bitter Taste Receptors and TRP Channels Involved in Gustation and Nociception” (Molecules, 2015)
Read-outs that look alike come from different tables or passages of the source.

Experiments:
Format in all cases: cell-based
TRPM5 = target: T1, TRPM5 (Homo sapiens, UniProt Q9NZQ8); assay: In vitro membrane potential dye assay (FLIPR) on HEK293T cells stably overexpressing TRPM5; conditions: for TRPM5 screening result: single dose, qualitative
T1 construct: expressed in transfected cells
T1 sequence (Q9NZQ8 1-1165): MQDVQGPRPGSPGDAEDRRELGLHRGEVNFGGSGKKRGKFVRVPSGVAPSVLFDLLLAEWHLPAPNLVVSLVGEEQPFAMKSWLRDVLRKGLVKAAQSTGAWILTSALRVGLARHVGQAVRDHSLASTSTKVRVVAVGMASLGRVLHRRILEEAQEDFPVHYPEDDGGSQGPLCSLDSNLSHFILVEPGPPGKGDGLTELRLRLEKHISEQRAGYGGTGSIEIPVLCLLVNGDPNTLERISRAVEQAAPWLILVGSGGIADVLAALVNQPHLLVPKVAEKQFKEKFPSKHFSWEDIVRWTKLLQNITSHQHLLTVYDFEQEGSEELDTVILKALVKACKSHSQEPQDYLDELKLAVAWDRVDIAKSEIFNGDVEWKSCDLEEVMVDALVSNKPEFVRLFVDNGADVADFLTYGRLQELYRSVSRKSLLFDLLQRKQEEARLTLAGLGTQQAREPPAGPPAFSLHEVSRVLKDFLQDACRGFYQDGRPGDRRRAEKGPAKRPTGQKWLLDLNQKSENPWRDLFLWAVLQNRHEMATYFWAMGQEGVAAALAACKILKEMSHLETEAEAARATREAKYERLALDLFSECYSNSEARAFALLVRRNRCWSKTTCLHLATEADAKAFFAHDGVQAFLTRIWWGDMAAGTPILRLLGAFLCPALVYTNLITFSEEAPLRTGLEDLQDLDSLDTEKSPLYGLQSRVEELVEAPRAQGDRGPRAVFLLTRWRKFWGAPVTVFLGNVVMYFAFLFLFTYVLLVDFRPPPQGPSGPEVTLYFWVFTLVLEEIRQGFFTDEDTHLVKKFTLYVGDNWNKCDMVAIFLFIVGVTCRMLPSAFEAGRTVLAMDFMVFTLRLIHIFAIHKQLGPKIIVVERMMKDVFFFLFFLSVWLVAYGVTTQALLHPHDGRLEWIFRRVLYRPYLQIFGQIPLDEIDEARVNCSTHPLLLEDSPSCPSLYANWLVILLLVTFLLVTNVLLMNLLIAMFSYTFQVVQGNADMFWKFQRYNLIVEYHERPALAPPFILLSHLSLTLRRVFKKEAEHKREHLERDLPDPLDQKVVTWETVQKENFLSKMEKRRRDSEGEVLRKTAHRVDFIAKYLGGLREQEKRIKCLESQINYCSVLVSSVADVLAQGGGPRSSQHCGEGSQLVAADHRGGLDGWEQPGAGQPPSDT
Description: (§1) Pure phytochemicals were submitted to in vitro assays with a platform of twenty cloned receptors of the bitter taste TAS2R family and four receptors of the TRP family related to the perception of taste and somatosensory sensations. All experiments have been repeated three times, each time with four replicates. […] For simplicity, only those bitter taste receptors having reproducible positive assay, namely TASR10, 14 and 49, are reported (Table 1).
(§2) For those compounds showing activity on one or more receptor(s), the concentration/response curves were plotted and the EC50 calculated.
(§3) For the biological tests, several compounds were purchased as references from different suppliers (Sigma Aldrich, ChromaDex, Irvine, CA, USA, and Tocris Bioscience, Bristol, UK) and dissolved in assay buffer (130 mM NaCl, 5 mM KCl, 1 mM MgCl2, 2 mM CaCl2, 5 mM NaHCO3 and 20 mM HEPES, pH 7.4) or in a mixture of assay buffer and DMSO, never exceeding a final DMSO concentration of 0.5% (v/v) to avoid toxic effects and possible artefacts on transfected cells.
(§4) All human TAS2R and G15Gi1 cDNAs were produced as reported in Bassoli et al. cDNAs for human TRPA1-M5-M8-V1-V4 were cloned into a pcDNA6 expression vector (Invitrogen-Thermo Fisher, Waltham, MA, USA).
(§5) All experiments were performed using HEK293T cells (ATCC).
(§6) For TRP platform experiments, cells were cultured in MEM/EBSS medium (ECB2071L EuroClone, Milan, Italy) plus 10% (v/v) fetal bovine serum (FBS) (26400-044 Gibco, Karlsruhe, Germany) and 1% (v/v) Pen/Strep 10K/10K stock (17-602E Lonza, Basel, Switzerland). Stable cell lines were generated overexpressing each TRP channel, and clones were selected with 500 µg/mL of G418 (ant-gn-5 Invivogen, Karlsruhe, Germany). To analyze TRP receptor responses, cells were plated at a concentration of 20,000 cells/well in 384-well plates (GR-4330 Twin Helix srl, Milan, Italy). Cellular responses were measured 24 h after seeding.
(§7) For TRPM5 experiments, cells were loaded 24 h after seeding with a Membrane Potential Dye (R8034 MDC) solution in assay buffer according to the manufacturer’s instructions and incubated at 37 °C for 1 h before acquisition. All experiments were performed using a fluorometric imaging plate reader (FLIPR^TETRA, Molecular Devices equipped with ICCD Camera from Stanford Photonics, INC, (Palo Alto, CA, USA) and kinetics were visualized with Molecular Devices’ Screenworks 3.0 (Sunnyvale, CA, USA).
(§8) For the calculation of concentration-response curves, responses were calculated as the difference between maximal and minimal relative fluorescence unit (RFU) values in a selected time window (11–60 s) and were normalized to the basal well fluorescence (Time Point 1, before compound injection) in order to compensate for differences in cell density (∆F/F0). All of the experiments have been repeated three times, each time with four replicates. All of the results are averages of at least four replicates. Raw data are available in Supplementary Material, Figures S3–S6.

TAS2R10 = target: T2, TAS2R10 (Homo sapiens, UniProt Q9NYW0); assay: In vitro calcium imaging assay on cloned TAS2R10 in transfected HEK293T cells; conditions: for TAS2R10 screening result: single dose, qualitative
T2 construct: expressed in transfected cells; host or cells: HEK293T
T2 sequence (Q9NYW0 1-307): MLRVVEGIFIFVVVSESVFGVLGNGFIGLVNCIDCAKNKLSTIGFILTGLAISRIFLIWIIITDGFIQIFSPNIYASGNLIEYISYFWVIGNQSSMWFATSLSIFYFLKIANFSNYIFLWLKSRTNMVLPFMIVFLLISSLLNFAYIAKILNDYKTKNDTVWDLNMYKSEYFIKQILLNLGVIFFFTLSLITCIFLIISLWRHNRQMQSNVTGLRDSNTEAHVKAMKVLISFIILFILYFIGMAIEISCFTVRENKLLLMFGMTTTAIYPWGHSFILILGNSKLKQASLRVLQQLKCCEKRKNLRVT
Description: as §1, §2, §3, §4, §5
For the bitter platform experiments, cells were cultured, transfected and analyzed as previously described.
For the bitter platform experiments, data analyses were performed as previously described.
as §8

TRPM8 = target: T3, TRPM8 (Homo sapiens, UniProt Q7Z2W7); assay: In vitro Fluo8-NW calcium assay (FLIPR) on HEK293T cells stably overexpressing TRPM8; conditions: for TRPM8 screening result: single dose, qualitative
T3 construct: expressed in transfected cells
T3 sequence (Q7Z2W7 whole entry): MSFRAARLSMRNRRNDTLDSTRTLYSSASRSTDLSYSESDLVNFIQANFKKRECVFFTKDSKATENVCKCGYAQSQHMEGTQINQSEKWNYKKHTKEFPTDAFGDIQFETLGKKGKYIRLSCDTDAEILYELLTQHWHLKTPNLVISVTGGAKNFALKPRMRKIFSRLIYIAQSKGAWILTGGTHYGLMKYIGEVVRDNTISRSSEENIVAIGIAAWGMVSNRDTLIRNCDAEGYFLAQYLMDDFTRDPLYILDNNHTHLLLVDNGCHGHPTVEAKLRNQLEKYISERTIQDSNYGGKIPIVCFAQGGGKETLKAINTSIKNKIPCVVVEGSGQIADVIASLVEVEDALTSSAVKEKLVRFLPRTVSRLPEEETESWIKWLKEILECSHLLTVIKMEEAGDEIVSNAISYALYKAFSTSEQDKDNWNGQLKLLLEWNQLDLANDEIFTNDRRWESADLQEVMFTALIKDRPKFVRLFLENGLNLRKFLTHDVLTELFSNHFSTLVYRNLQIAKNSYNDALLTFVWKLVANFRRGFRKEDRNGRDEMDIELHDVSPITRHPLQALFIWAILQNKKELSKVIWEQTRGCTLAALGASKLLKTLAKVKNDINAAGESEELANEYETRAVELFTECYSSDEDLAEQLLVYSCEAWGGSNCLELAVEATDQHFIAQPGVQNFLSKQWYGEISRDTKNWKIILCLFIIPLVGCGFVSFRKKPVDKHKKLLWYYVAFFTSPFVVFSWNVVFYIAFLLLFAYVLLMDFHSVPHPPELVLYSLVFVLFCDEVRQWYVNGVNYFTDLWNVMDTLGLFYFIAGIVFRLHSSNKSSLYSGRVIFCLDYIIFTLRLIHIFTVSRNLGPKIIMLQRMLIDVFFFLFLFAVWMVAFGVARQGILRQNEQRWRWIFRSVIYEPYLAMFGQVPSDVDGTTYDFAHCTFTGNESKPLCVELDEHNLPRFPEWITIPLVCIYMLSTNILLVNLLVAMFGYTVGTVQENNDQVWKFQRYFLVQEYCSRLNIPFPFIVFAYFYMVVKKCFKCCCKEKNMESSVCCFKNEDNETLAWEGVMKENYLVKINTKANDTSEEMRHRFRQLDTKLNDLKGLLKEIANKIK
Description: as §1, §2, §3, §4, §5, §6
For TRPA1-M8-V1-V4 experiments, a solution of Fluo8-NW calcium-sensitive dye (36316 AAT BioQuest, Sunnyvale, CA, USA) was prepared using the assaybuffer and diluting the kit components 1:2 according to the manufacturer’s instructions. Twenty-four hours after seeding, cells were incubated one hour at RT, loaded with 40 µL of Fluo8-NW solution for each well and incubated again for one hour at RT before data acquisition.
as §7, §8

[1] = concentration/response curve, values with ≥ estimated, curve did not saturate, read-out: EC50 TAS2R10

| SMILES | TRPM5 screening result (TRPM5) | Activity on TAS2R10 (in words) (TAS2R10) | EC50 (TAS2R10) [µM] | TAS2R10 screening result (TAS2R10) | TRPM8 screening result (TRPM8) | Activity on TRPM5 (in words) (TRPM5) | EC50 (TRPM5; concentration/response curve, values with ≥ estimated) [µM] | Activity on TRPM8 (in words) (TRPM8) | EC50 (TAS2R10; [1]) [µM] |
| --- | --- | --- | --- | --- | --- | --- | --- | --- | --- |
| COc1c2occc2cc2ccc(=O)oc12 [Compound 4, xanthotoxin] | − | responded | ≥ 20.6 | + | − |  |  |  |  |
| C=CC(C)(C)c1cc2cc3c(cc2oc1=O)OC(C(C)(C)OC(C)=O)C3 (stereo not shown) [Compound 2, rutamarin] | + |  |  | − |  | activated | ≥ 26.7 | strong antagonist |  |
| CCCCCCCCCC(C)=O [Compound 9, 2-undecanone] | − |  |  | − | − |  |  |  |  |
| C[C@@H]1O[C@@H](OC[C@H]2O[C@@H](Oc3c(-c4ccc(O)c(O)c4)oc4cc(O)cc(O)c4c3=O)[C@H](O)[C@@H](O)[C@@H]2O)[C@H](O)[C@H](O)[C@H]1O [Compound 1, rutin] | − |  |  | − | − |  |  |  |  |
| COc1c2ccoc2cc2oc(=O)ccc12 [Compound 3, bergapten] | − | selective and strong agonist |  | +++ | − |  |  |  | 2.8 |
| COc1ccc2c(OC)c3ccoc3nc2c1OC [Compound 8, skimmianine] | − |  |  | − | − |  |  |  |  |
| COc1cc2nc3occc3c(OC)c2cc1OC [Compound 7, kokusaginin] | − |  |  | − | − |  |  |  |  |
| COc1c2ccoc2c(OC)c2oc(=O)ccc12 [Compound 5, isopimpinellin] | − |  |  | ++ | − |  |  |  | 12 |
| CCCCCCCC(C)=O [Compound 10, 2-nonanone] | − |  |  | − | − |  |  |  |  |
